Experiments:
[1] = test system: estrogenicity; conditions: cited from earlier work
[2] = test system: CYP3A4/5; assay: Single concentration Kobs assay (time-dependent inhibition) in HLM; format: biochemical, human; conditions: for Kobs 3A4: HLM, 0.02 min^−1 indicates TD inhibition potential; for Kobs 3A4 / inhibition at 30 min: single concentration; for Single concentration Kobs assay (risk bin) 3A4: TD inhibition class from Kobs vs 0.02 min^−1 (Table 5 traffic lights); for inhibition at 30 min: human, human liver microsomes, significant if >50%, read-out: 3A4 R_Inh% (reversible inhibition)
Excerpt: (§1) CYP inhibition evaluation is typically performed by either IC50 at single-point or IC50 Shift or abbreviated assay such as the first-order inactivity rate constant (K obs ) at single concentration.
(§2) This method yielded good correlations between the percent inhibition at 10 or 25 μ M and kinact/KI. Evaluation of TD inhibition at single concentration has been implemented in several drug discovery programs. […] Therefore, in this study, a single K obs approach has been utilized to understand the TD inhibition potential of TbB ligands. Ideally, the inhibition of CYPs can be reversible or irreversible. The data obtained from single-concentration K obs studies were analyzed to understand the same. From the data presented in Table 4, the TbB ligands have values less than 50% for reversible inhibition (R_Inh). As the qualified % reversible inhibition is considered significant if >50%, no significant reversible inhibition is observed for TbB ligands. Knowledge about enzyme inactivation half-life (E½) is also equally important as it would provide insight into the TD inhibition of a compound. E½ can be used to bin the compounds as positive or negative TD inhibitors if the values are <28 or >28, respectively. The TbB ligand 223-2 is observed to be a weak positive TD inhibitor of 1A2 and is negative TD inhibitor to the other six CYP isoforms.
(§3) The time-dependent inhibition (TDI) potential of test compounds against CYP1A2, 2B6, 2C8, 2C9, 2C19, 2D6, 3A4/5 isoforms were determined using Human liver microsomes. Assay is performed in 96-deep well plate format (n = 1). Positive controls and DMSO as negative control in each assay. To obtain 100 μ M working stock solution, 1 μ L of blank DMSO/test/reference compounds to 100 μ L 1× DPBS buffer was added and labeled as dilution plate. To the primary incubation plate, 45 μ L of primary mix was dispensed to the desired wells containing 25 μ L HLM, 10 μ L MgCl2, and 10 μ L of NADPH working solutions. To the secondary incubation plate, 95 μ L of secondary mix was dispensed to the desired wells containing 20 μ L MgCl2, 20 μ L NADPH, 10 μ L respective substrates for CYP isoform working solutions and 45 μ L 1× DPBS buffer. Each of these four plates were labeled with their respective time points, i.e., 0, 6, 16, 32 min. Pre-incubated the dilution plate along with primary incubation plate at 37 °C for 15 min at 450 rpm. The reaction was carried out in triplicate. After the incubation, the reaction was quenched by adding 150 μ L ice cold stop solution to all the wells followed by centrifuging the samples at 4000 rpm, 4 °C for 15 min. The supernatant samples were then transferred into vials for LC-MS/MS analysis. The percent Reversible Inhibition was calculated using the following formula. %Reversibleinhibition=100−(PARtestcompt0×100)/(PARaverageDMSOt0)

[3] = molecular target: T1, CYP2C8 (Homo sapiens, UniProt P10632); assay: as above; format: biochemical; conditions: for Kobs 2C8: HLM, 0.02 min^−1 indicates TD inhibition potential; for Kobs 2C8 / inhibition at 30 min: single concentration; for Single concentration Kobs assay (risk bin) 2C8: TD inhibition class from Kobs vs 0.02 min^−1 (Table 5 traffic lights); for inhibition at 30 min: human, human liver microsomes, significant if >50%, read-out: 2C8 R_Inh% (reversible inhibition)
T1 construct: Using HLM as the enzyme source; from tissue; host or cells: human liver microsomes
T1 sequence (P10632 1-490): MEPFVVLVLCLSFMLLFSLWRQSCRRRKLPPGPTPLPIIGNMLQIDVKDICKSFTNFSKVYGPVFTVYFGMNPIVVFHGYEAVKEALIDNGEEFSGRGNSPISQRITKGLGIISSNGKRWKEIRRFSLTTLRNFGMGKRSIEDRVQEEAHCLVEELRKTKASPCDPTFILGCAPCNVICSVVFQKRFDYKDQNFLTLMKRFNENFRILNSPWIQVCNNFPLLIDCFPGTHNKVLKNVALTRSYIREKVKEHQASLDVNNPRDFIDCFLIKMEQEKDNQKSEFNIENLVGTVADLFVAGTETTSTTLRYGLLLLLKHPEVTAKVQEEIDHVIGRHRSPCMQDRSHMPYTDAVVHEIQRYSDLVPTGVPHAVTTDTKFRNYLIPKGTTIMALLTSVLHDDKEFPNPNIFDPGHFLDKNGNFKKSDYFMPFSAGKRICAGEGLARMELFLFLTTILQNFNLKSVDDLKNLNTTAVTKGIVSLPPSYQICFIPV
Excerpt: as §1, §2, §3

[4] = molecular target: T2, CYP2D6 (Homo sapiens, UniProt P10635); assay: as above; format: biochemical; conditions: for Kobs 2D6: HLM, 0.02 min^−1 indicates TD inhibition potential; for Kobs 2D6 / inhibition at 30 min: single concentration; for Single concentration Kobs assay (risk bin) 2D6: TD inhibition class from Kobs vs 0.02 min^−1 (Table 5 traffic lights); for inhibition at 30 min: human, human liver microsomes, significant if >50%, read-out: 2D6 R_Inh% (reversible inhibition)
T2 construct: Using HLM as the enzyme source; from tissue; host or cells: human liver microsomes
T2 sequence (P10635 whole entry): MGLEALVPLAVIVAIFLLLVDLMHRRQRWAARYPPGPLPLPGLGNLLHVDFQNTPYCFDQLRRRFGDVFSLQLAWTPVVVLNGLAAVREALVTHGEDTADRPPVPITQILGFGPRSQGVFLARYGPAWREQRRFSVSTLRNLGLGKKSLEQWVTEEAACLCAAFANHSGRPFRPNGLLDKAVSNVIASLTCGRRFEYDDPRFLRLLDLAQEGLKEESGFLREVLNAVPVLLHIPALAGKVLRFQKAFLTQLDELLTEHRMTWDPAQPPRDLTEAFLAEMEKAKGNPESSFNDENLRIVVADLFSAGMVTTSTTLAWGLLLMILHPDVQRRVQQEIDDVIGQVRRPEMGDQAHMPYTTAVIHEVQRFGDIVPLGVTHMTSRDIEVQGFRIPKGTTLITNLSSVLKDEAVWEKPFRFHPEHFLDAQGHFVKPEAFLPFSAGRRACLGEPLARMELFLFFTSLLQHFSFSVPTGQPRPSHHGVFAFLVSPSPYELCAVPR
Excerpt: as §1, §2, §3

[5] = molecular target: T3, CYP2B6 (Homo sapiens, UniProt P20813); assay: as above; format: biochemical; conditions: for Kobs 2B6: HLM, single concentration, 0.02 min^−1 indicates TD inhibition potential; for Single concentration Kobs assay (risk bin) 2B6: TD inhibition class from Kobs vs 0.02 min^−1 (Table 5 traffic lights)
T3 construct: Using HLM as the enzyme source; from tissue; host or cells: human liver microsomes
T3 sequence (P20813 1-491): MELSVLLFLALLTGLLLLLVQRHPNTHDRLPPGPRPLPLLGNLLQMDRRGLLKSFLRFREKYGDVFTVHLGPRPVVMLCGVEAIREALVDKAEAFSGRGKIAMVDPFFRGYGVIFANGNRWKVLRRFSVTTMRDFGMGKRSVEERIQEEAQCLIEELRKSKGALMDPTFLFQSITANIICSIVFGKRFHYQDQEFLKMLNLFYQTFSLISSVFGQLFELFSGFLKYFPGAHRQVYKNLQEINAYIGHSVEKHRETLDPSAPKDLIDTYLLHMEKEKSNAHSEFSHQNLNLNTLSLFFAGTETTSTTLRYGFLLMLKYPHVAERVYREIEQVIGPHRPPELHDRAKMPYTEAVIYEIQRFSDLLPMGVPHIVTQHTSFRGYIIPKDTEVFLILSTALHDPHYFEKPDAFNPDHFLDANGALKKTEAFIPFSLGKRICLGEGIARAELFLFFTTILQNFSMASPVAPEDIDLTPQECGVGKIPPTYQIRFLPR
Excerpt: as §1, §2, §3

| Structure (SMILES) | estrogenicity by in vitro studies [1] | Kobs 3A4 [2] | Single concentration Kobs assay (risk bin) 3A4 [2] | inhibition at 30 min [2] | Kobs 2C8 [3] | Single concentration Kobs assay (risk bin) 2C8 [3] | inhibition at 30 min [3] | Kobs 2D6 [4] | Single concentration Kobs assay (risk bin) 2D6 [4] | inhibition at 30 min [4] | Kobs 2B6 [5] | Kobs 2B6 ([5]; listed as 223-02) | Single concentration Kobs assay (risk bin) 2B6 [5] |
| --- | --- | --- | --- | --- | --- | --- | --- | --- | --- | --- | --- | --- | --- |
| COc1cc(-c2nnn(-c3cc(OC)c(O)c(OC)c3)n2)cc(OC)c1O [223-2] | potentially non-estrogenic | 0.006312 min⁻¹ | negative inhibitor | < 50% | 0.004276 min⁻¹ | negative inhibitor | < 50% | 1.479e-10 min⁻¹ | negative inhibitor | < 50% | 0.0147 min⁻¹ | 0.01472 min⁻¹ | weak positive inhibitor |
| Cc1cc(-c2nnn(-c3cc(C)c(O)c(C)c3)n2)cc(C)c1O [223-3] | potentially non-estrogenic | 0.02143 min⁻¹ | weak positive inhibitor | < 50% | 0.02943 min⁻¹ | positive inhibitor | < 50% | 0.01109 min⁻¹ | weak positive inhibitor | < 50% | 0.02027 min⁻¹ | – | weak positive inhibitor |
| Oc1ccc(-c2nnn(-c3ccc(O)cc3)n2)cc1 [223-10] | – | 0.001719 min⁻¹ | negative inhibitor | < 50% | 0.01585 min⁻¹ | weak positive inhibitor | < 50% | 0.009064 min⁻¹ | negative inhibitor | < 50% | 0.01121 min⁻¹ | – | weak positive inhibitor |

Source: paper PMC9921896 (Molecules, 2023)
